Bridge positions count the residues as written; N and C are the ends. Ends that are not written are not given here.
How the values were obtained:
Crl:CD1(ICR) mice = assay: Evaluation of cardiovascular effects in the conscious telemetered mouse (subcutaneous administration); assay type: in vivo
Procedure: Male Crl:CD1(ICR) mice (age range 8-13 weeks and body weight range 27.3-35.6 g at start of dosing) were surgically implanted with a TA11PA-C10 telemetry transmitter (Data Sciences International (DSI)) in the carotid artery. The body of the transmitter was placed subcutaneously in the lateral flank of the mouse. The mice were dosed subcutaneously in a latin square crossover design with at least 72 hours between dosing occasions. […] At least four mice were included at each dose level. Blood pressure (systolic (SAP), diastolic (DAP) and mean (MAP) and heart rate (HR, derived from blood pressure), were recorded using a digital data capture system linked with a DSI™ Ponemah data acquisition and analysis system. The capture system allowed recording of the cardiovascular parameters whilst the mice were in individual cages. On the day of each test session the animals were weighed and a predose recording was performed for at least 60 min prior to dosing. Each mouse was returned to the home cage and the cardiovascular parameters were recorded for approximately 48 hours postdose. Blood pressure and HR were reported at the following time points: −30, −20, −10, 5, 15 and 30 min postdose and 1, 2, 6, 12, 18, 24, 30, 36, 42 and 48 hours postdose. Each time point was presented as the average value of five minute's recording prior to the time point. The monitoring period was selected to cover exposure to the test items both prior to and after Tnax.

[1] = doses up to 15 μg/kg, healthy volunteers; cited from earlier work
[2] = in vivo; cited from earlier work

Compound	MAP predose (mean±SD) (Crl:CD1(ICR) mice; predose, n = 4)	heart rate (HR) (Crl:CD1(ICR) mice; sc, 800 μg CNP-38 eq/kg, up to 48 hours postdose)	MAP 5 min post dose (mean±SD) (Crl:CD1(ICR) mice; sc, 800 μg CNP-38 eq/kg, n = 4)	MAP 15 min post dose (mean±SD) (Crl:CD1(ICR) mice; sc, 800 μg CNP-38 eq/kg, n = 4)	MAP 30 min post dose (mean±SD) (Crl:CD1(ICR) mice; sc, 800 μg CNP-38 eq/kg, n = 4)	blood pressure effect [1]	half-life [2]
CC[C@H](C)[C@@H]1NC(=O)[C@H](CCCNC(=N)N)NC(=O)[C@H](CC(=O)O)NC(=O)[C@H](CC(C)C)NC(=O)[C@H](CCCCN)NC(=O)[C@H](CC(C)C)NC(=O)CNC(=O)[C@H](Cc2ccccc2)NC(=O)[C@@H](NC(=O)CNC(=O)[C@H](CCCCN)NC(=O)[C@H](CO)NC(=O)[C@H](CC(C)C)NC(=O)CNC(=O)[C@H](CCCCN)NC(=O)[C@H](CCCCN)NC(=O)[C@H](CC(N)=O)NC(=O)[C@H](C)NC(=O)CNC(=O)[C@H](CCCCN)NC(=O)[C@H](Cc2ccc(O)cc2)NC(=O)[C@H](CCCCN)NC(=O)[C@H](CCCNC(=N)N)NC(=O)[C@H](C)NC(=O)[C@H](CC(N)=O)NC(=O)[C@@H]2CCCN2C(=O)[C@H](Cc2c[nH]cn2)NC(=O)[C@H](CCC(=O)O)NC(=O)[C@H](CCC(N)=O)NC(=O)[C@@H](N)CC(C)C)CSSC[C@@H](C(=O)O)NC(=O)CNC(=O)[C@H](CC(C)C)NC(=O)CNC(=O)[C@H](CO)NC(=O)[C@H](CCSC)NC(=O)[C@H](CO)NC(=O)CNC1=O [CNP-38]	106.8 ± 13.4 mmHg	not impacted	102.0 ± 7.5 mmHg	89.5 ± 29.4 mmHg	99.5 ± 25.2 mmHg		
BMN-111: modified recombinant human C-type Natriuretic Peptide; 17 amino acids added to form a 39 amino acid CNP analog (PGQEHPNARKYKGANKKGLSKGCFGLKLDRIGSMSGLGC; disulfide 23-39; chains of the INN, looked up)						mild hypotension	20 min

Source: US12156917B2, “CNP prodrugs with carrier attachment at the ring moiety” (ASCENDIS PHARMA GROWTH DISORDERS A/S, priority 2016, dated 2024)
